Structures are written as SMILES.

Format in all cases: cell-based
For experiment [1], the system named is alpha-smooth muscle actin (α-SMA). Put plainly: Inhibition of TGF-β induced expression of alpha-smooth muscle actin in CFSC cells (western blot). Conditions: compound at 10 μM, TGF-β (10 ng/mL), 24 hours. A digest of the protocol: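 Read-out is percent decrease in α-SMA western-blot band intensity, β-actin also probed, relative to TGF-β-only cells. CFSC cells were co-treated for 24 h at 37 °C with 10 ng/mL TGF-β and 10 μM compound in serum-free DMEM.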
In general terms: A western blot detects proteins with antibodies after separation by electrophoresis.

Experiment [2] concerns A431 (epidermoid carcinoma). Put plainly: Antiproliferative activity, CCK-8 cell viability. Conditions: Homo sapiens, A-431, 72 h, read-out: Inhibition of Cancerous Cells, A431; for inhibition at 3.3 µM: compound concentration of 3.3 μM; for inhibition at 10 µM: compound concentration of 10 μM; for inhibition at 30 µM: compound concentration of 30 μM. A digest of the protocol:
(§1)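 Viability relative to DMSO controls came from CCK-8 absorbance at 450 nm after 72 h exposure at 37°C. Compound concentrations were 3.3, 10 or 30 μM, in DMEM plus 10% FBS. Results are categorised by inhibition level: at least 50%, 30 to under 50%, or under 30%.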

Experiment [3] concerns A549 (lung adenocarcinoma). Put plainly: Antiproliferative activity, CCK-8 cell viability. Conditions: Homo sapiens, 72 h, read-out: Inhibition of Cancerous Cells, A549; for inhibition at 3.3 µM: compound concentration of 3.3 μM; for inhibition at 10 µM: compound concentration of 10 μM; for inhibition at 30 µM: compound concentration of 30 μM.
Experiment [4] has as its system B16F10 (malignant melanoma). Put plainly: Antiproliferative activity, CCK-8 cell viability. Conditions: Mus musculus, B16-F10, 72 h, read-out: Inhibition of Cancerous Cells, B16F10; for inhibition at 3.3 µM: compound concentration of 3.3 μM; for inhibition at 10 µM: compound concentration of 10 μM; for inhibition at 30 µM: compound concentration of 30 μM. The method in brief:
as §1

The subject of another experiment is HeLa (cervical cancer). Put plainly: Antiproliferative activity, CCK-8 cell viability. Conditions: Homo sapiens, 72 h, read-out: Inhibition of Cancerous Cells, HELA; for inhibition at 3.3 µM: compound concentration of 3.3 μM; for inhibition at 10 µM: compound concentration of 10 μM; for inhibition at 30 µM: compound concentration of 30 μM.
A further experiment concerns HepG2 (liver cancer). Put plainly: Antiproliferative activity, CCK-8 cell viability. Conditions: Homo sapiens, 72 h, read-out: Inhibition of Cancerous Cells, HepG2; for inhibition at 3.3 µM: compound concentration of 3.3 μM; for inhibition at 10 µM: compound concentration of 10 μM; for inhibition at 30 µM: compound concentration of 30 μM. A digest of the protocol:
as §1

The test system of experiment [5] is MDA-MB-231 (breast cancer). Briefly: Antiproliferative activity, CCK-8 cell viability. Conditions: Homo sapiens, 72 h, read-out: Inhibition of Cancerous Cells, MDA-MB-231; for inhibition at 3.3 µM: compound concentration of 3.3 μM; for inhibition at 10 µM: compound concentration of 10 μM; for inhibition at 30 µM: compound concentration of 30 μM. A digest of the protocol:
as §1

In another experiment the test system is SW480 (colon cancer). Put plainly: Antiproliferative activity, CCK-8 cell viability. Conditions: Homo sapiens, 72 h, read-out: Inhibition of Cancerous Cells, SW480; for inhibition at 3.3 µM: compound concentration of 3.3 μM; for inhibition at 10 µM: compound concentration of 10 μM; for inhibition at 30 µM: compound concentration of 30 μM. A digest of the protocol: as §1

In general, inhibition refers to the percentage by which the read-out fell short of the control. As to `COc1ccc2c(c1)/C(=C\c1ccc(CN(C)c3ccccc3)cc1)C(C)=C2CC(=O)O` [Compound A13, 2-[(1Z)-6-Methoxy-2-methyl-1-[(4-{[methyl(phenyl)amino]methyl}phenyl)-methylidene]-1H-inden-3-yl]acetic acid], the inhibition at 10 µM in experiment [1] was at least 80%; in experiment [2], at least 50%; in experiment [3] it was 30 to 50%; in experiment [4], 30 to 50%; in the experiment on HeLa (cervical cancer) it was 30 to 50%; in the experiment with HepG2 (liver cancer) it was at least 50%. In addition, the inhibition at 10 µM (in experiment [5]; with SW480 (colon cancer)) was 30 to 50% each time. Besides, the inhibition at 3.3 µM in experiment [2] is at least 50%; in experiment [3], 30 to 50%; in experiment [4], under 30%; in the experiment with HeLa (cervical cancer) it was under 30%; in the experiment on HepG2 (liver cancer) it was at least 50%; in experiment [5], under 30%. Besides, the inhibition at 3.3 µM in the experiment with SW480 (colon cancer) was at least 50%. Moreover, the inhibition at 30 µM (in experiment [2]; in experiment [3]; in experiment [4]; in the experiment with HeLa (cervical cancer); in the experiment on HepG2 (liver cancer); in experiment [5]) was at least 50% in each case. Moreover, the inhibition at 30 µM in the experiment with SW480 (colon cancer) is at least 50%.

Turning to `CC1=C(CC(=O)O)c2cc(F)ccc2/C1=C\c1ccc(CCc2ccccc2)cc1` [Compound A8, 2-[(1Z)-5-Fluoro-2-methyl-1-{[4-(2-phenylethyl)phenyl]methylidene}-1H-inden-3-yl]acetic acid], the inhibition at 10 µM in experiment [1] is at least 80%; in experiment [2], at least 50%; in experiment [3], at least 50%; in experiment [4], under 30%; in the experiment on HeLa (cervical cancer), under 30%; in the experiment on HepG2 (liver cancer) it was 30 to 50%. For the same molecule, the inhibition at 10 µM (in experiment [5]; with SW480 (colon cancer)) was at least 50% in each case. The inhibition at 3.3 µM is 30 to 50% in experiment [2]; under 30% in experiment [3]; under 30% in experiment [4]; under 30% in the experiment with HeLa (cervical cancer); 30 to 50% in the experiment with HepG2 (liver cancer); 30 to 50% in experiment [5]. Besides, in the experiment on SW480 (colon cancer), the inhibition at 3.3 µM lay in the range of 30 to 50%. For the same molecule, the inhibition at 30 µM (in experiment [2]; in experiment [3]; in experiment [4]; in the experiment with HeLa (cervical cancer); in the experiment on HepG2 (liver cancer); in experiment [5]) was at least 50% throughout. Further, the inhibition at 30 µM with SW480 (colon cancer) is at least 50%.

As to `CC1=C(CC(=O)O)c2cc(F)ccc2/C1=C\c1cccc(Oc2ccc(Cl)cc2)c1` [Compound D25, 2-[(1Z)-5-Fluoro-2-methyl-1-({3-[4-chlorophenoxy]phenyl}methylidene)-1H-inden-3-yl]acetic acid], the inhibition at 10 µM is at least 80% in experiment [1]; under 30% in experiment [2]; 30 to 50% in experiment [3]; at least 50% in experiment [4]; at least 50% with HeLa (cervical cancer); at least 50% in the experiment with HepG2 (liver cancer). For the same molecule, the inhibition at 10 µM (in experiment [5]; in the experiment with SW480 (colon cancer)) was at least 50% throughout. Further, the inhibition at 3.3 µM in experiment [2] was under 30%; in experiment [3] it was under 30%; in experiment [4] it was 30 to 50%; in the experiment on HeLa (cervical cancer), 30 to 50%; in the experiment on HepG2 (liver cancer) it was 30 to 50%; in experiment [5], at least 50%. Moreover, the inhibition at 3.3 µM with SW480 (colon cancer) is at least 50%. For the same molecule, the inhibition at 30 µM (in experiment [2]; in experiment [3]; in experiment [4]; in the experiment with HeLa (cervical cancer); with HepG2 (liver cancer); in experiment [5]) was at least 50% each time. Besides, in the experiment with SW480 (colon cancer), the inhibition at 30 µM is at least 50%.

Consider `COc1cccc2c1C(CC(=O)O)=C(C)/C2=C/c1ccc(COc2ccccc2)cc1` [Compound A11], for which the inhibition at 10 µM in experiment [1] is under 30%; in experiment [2], at least 50%; in experiment [3], 30 to 50%; in experiment [4] it was at least 50%; in the experiment on HeLa (cervical cancer) it was under 30%; with HepG2 (liver cancer), at least 50%. In addition, the inhibition at 10 µM was 30 to 50% in experiment [5] and at least 50% in the experiment on SW480 (colon cancer). Moreover, the inhibition at 3.3 µM in experiment [2] was at least 50%; in experiment [3] it was 30 to 50%; in experiment [4], at least 50%; in the experiment on HeLa (cervical cancer), under 30%; in the experiment with HepG2 (liver cancer), 30 to 50%; in experiment [5], under 30%. Further, the inhibition at 3.3 µM with SW480 (colon cancer) is at least 50%. Also, the inhibition at 30 µM in experiment [2] was at least 50%; in experiment [3], 30 to 50%; in experiment [4], at least 50%; with HeLa (cervical cancer), under 30%; in the experiment on HepG2 (liver cancer), at least 50%; in experiment [5], at least 50%. For the same molecule, in the experiment with SW480 (colon cancer), the inhibition at 30 µM was at least 50%.

Take `CC1=C(CC(=O)O)c2c(F)cc(F)cc2/C1=C\c1ccc(Oc2ccc(F)cc2)cc1` [Compound D16, 2-[(1Z)-4,6-Difluoro-2-methyl-1-({4-[4-fluorophenoxy]phenyl}methylidene)-1H-inden-3-yl]acetic acid]: the inhibition at 10 µM is at least 80% in experiment [1]; 30 to 50% in experiment [2]; 30 to 50% in experiment [3]; 30 to 50% in experiment [4]; 30 to 50% in the experiment on HeLa (cervical cancer); 30 to 50% in the experiment with HepG2 (liver cancer). Moreover, the inhibition at 10 µM was at least 50% in experiment [5] and 30 to 50% with SW480 (colon cancer). Also, the inhibition at 3.3 µM in experiment [2] is under 30%; in experiment [3], under 30%; in experiment [4], under 30%; in the experiment with HeLa (cervical cancer), under 30%; in the experiment on HepG2 (liver cancer) it was 30 to 50%; in experiment [5], at least 50%. In the experiment with SW480 (colon cancer), the inhibition at 3.3 µM was under 30%. Further, the inhibition at 30 µM was at least 50% in experiment [2]; 30 to 50% in experiment [3]; at least 50% in experiment [4]; at least 50% in the experiment on HeLa (cervical cancer); at least 50% in the experiment on HepG2 (liver cancer); at least 50% in experiment [5]. For the same molecule, the inhibition at 30 µM in the experiment on SW480 (colon cancer) is at least 50%.

In the case of `CC1=C(CC(=O)O)c2cc(F)ccc2/C1=C\c1ccc(Cc2ccc(F)cc2)cc1` [Compound A3, 2-[(1Z)-5-Fluoro-2-methyl-1-({4-[4-fluorobenzyl]phenyl}methylidene)-1H-inden-3-yl]acetic acid], the inhibition at 10 µM in experiment [1] is at least 80%; in experiment [2], at least 50%; in experiment [3] it was at least 50%; in experiment [4] it was 30 to 50%; in the experiment on HeLa (cervical cancer), 30 to 50%; in the experiment on HepG2 (liver cancer) it was at least 50%. The inhibition at 10 µM (in experiment [5]; in the experiment with SW480 (colon cancer)) was at least 50% in each case. The inhibition at 3.3 µM in experiment [2] was under 30%; in experiment [3], under 30%; in experiment [4], under 30%; with HeLa (cervical cancer) it was under 30%; in the experiment with HepG2 (liver cancer) it was at least 50%; in experiment [5] it was at least 50%. Besides, in the experiment with SW480 (colon cancer), the inhibition at 3.3 µM is at least 50%. Further, the inhibition at 30 µM (in experiment [2]; in experiment [3]; in experiment [4]; with HeLa (cervical cancer); in the experiment on HepG2 (liver cancer); in experiment [5]) was at least 50% in each case. Further, in the experiment on SW480 (colon cancer), the inhibition at 30 µM was at least 50%.
